Test [1] has as its target T1, HuLong/mMCH1R-1-EGFP (human long form/mouse species chimeric MCH1R-1-EGFP) (Homo sapiens, UniProt Q99705, A336T/R230K/V159M).
T1 construct: ID; NO; 14 (human long form/mouse species chimeric MCH1R-linker-EGFP); 12 amino acid linker […]; expressed in transfected cells; host or cells: CHO (transient) and HEK293 Aequorin (transient)
In words: cAMP production (FlashPlate), transiently transfected CHO cells stimulated with human MCH. It counts as cell-based. The conditions noted are these: HuLong/mMCH1R-1-EGFP vs wild-type human MCH1R long form; transient CHO. As for the experimental part:
Both HEK293 Aequorin (National Institutes of Health) and CHO mammalian cell lines were transiently transfected with the various MCH1R/GFP variant fusion constructs, as well as the appropriate control constructs. Transfection was performed using Lipofectamine 2000 (Gibco BRL) per the manufacturer recommended protocol. […] Aequorin bioluminescence is a representative measure of intracellular Ca^2+ mobilization. cAMP production was measured with the Adenylyl Cyclase Activation FlashPlate Assay (NEN Life Science Products, Inc.).

For the next test, the system named is mMCH-1R-EGFP. In words: cAMP flashplate assay of stable CHO cell clones. It counts as cell-based, mouse. The conditions noted are these: human MCH, 15 minutes at 37° C., 10 μM forskolin; individual stable CHO clones; FIG. 2. An excerpt: FIG. 2 illustrates a cAMP flashplate assay of CHO cell clones stably expressing mMCH-1R-EGFP. […] Cells were then lysed and assayed for bound [^125I]cAMP.
(§1) Wild-type CHO cells were transfected using SuperFect (Qiag.en) and either mouse MCH-1R-EGFP or human short/mouse species chimeric MCH-1R-EGFP. Forty-eight hours after transfection, transfected cells were subjected to positive selection for approximately ten days in media containing G418. Following selection, MCH-1R-EGFP expressing CHO cells were bulk sorted by Fluorescence Assisted Cell Sorting (FACS) for one or two rounds on the basis of fluorescence intensity to increase the population of cells expressing EGFP. Following bulk sorts, individual clones of varying fluorescence intensities were isolated by FACS and expanded.
The functional activity of these clones was evaluated with the cAMP Flashplate Assay (FIGS. 2 and 3).

A further test has as its system mouse MCH-1R-EGFP. The test can be described thus: SPA-based Binding Assay, CHO cell membranes, [125I]Phe13Tyr19-MCH. The conditions noted are these: displacement of [125I]Phe13Tyr19-MCH, stable CHO cell membranes.
Excerpt: as §1
Fluorometric Microvolume Assay Technology (FMAT) was initially employed to screen a large number of stable clones by whole cell binding with a fluorescently labeled MCH derivative (SymJz-MCH, PE Biosystems) to identify those clones with good specific binding windows.

Where “and” joins values, the source holds several entries; their conditions need not be identical. Equal values may be shown once.

human MCH: in test [1], the “EC50 fold higher than that of corresponding wild-type control” value is “approximately 7.5 fold”. The EC50 in the test on mMCH-1R-EGFP is 0.111 nM and 0.126 nM and 0.129 nM and 0.23 nM. For the same substance, the “IC50 with MCH compared with wild-type human short isoform” value in the test with mouse MCH-1R-EGFP is given as “indistinguishable”.

The record behind these values is patent US7029878B2, “Melanin concentrating hormone receptor chimeric and fusion proteins” (Merck & Co., Inc., priority 2000, dated 2006).
